Source: patent EP0620225B1, “Cephalosporin derivatives” (Basilea Pharmaceutica AG, priority 1993, dated 1994)
Converted amounts (≈) assume the structure as drawn.

Columns and labels:
E.faecalis [1] = assay: In vitro activity against selected species (MIC50, MIC90, range); assay type: cell-based; settings: Enterococcus faecalis, medium IsoB
E.coli 25922 = assay: Antibacterial spectrum (MIC), agar dilution; assay type: cell-based; settings: Escherichia coli, read-out: MIC
Experimental: (§1) In vitro activity was determined by minimum inhibitory concentration in a microorganism spectum by the agar dilution method in Mueller Hinton agar.

E.faecalis 6 = assay: Antibacterial spectrum (MIC), agar dilution; assay type: cell-based; settings: Enterococcus faecalis, read-out: MIC
Experimental: as §1

S.pneumoniae Q19 = assay: Antibacterial spectrum (MIC), agar dilution; assay type: cell-based; settings: Streptococcus pneumoniae, read-out: MIC
Experimental: as §1

P.mirabilis 2117 = assay: Antibacterial spectrum (MIC), agar dilution; assay type: cell-based; settings: Proteus mirabilis, read-out: MIC
Experimental: as §1

S.pyogenes B15 = assay: Antibacterial spectrum (MIC), agar dilution; assay type: cell-based; settings: Streptococcus pyogenes, read-out: MIC
Experimental: as §1

H.influenzae 1 = assay: Antibacterial spectrum (MIC), agar dilution; assay type: cell-based; settings: Haemophilus influenzae, read-out: MIC
Experimental: as §1

L.monocytogenes BK23 = assay: Antibacterial spectrum (MIC), agar dilution; assay type: cell-based; settings: Listeria monocytogenes, read-out: MIC
Experimental: as §1

M.morganii 6H-137 = assay: Antibacterial spectrum (MIC), agar dilution; assay type: cell-based; settings: Morganella morganii, 6H137, read-out: MIC
Experimental: as §1

E.cloacae 908SSi = assay: Antibacterial spectrum (MIC), agar dilution; assay type: cell-based; settings: Enterobacter cloacae, read-out: MIC
Experimental: as §1

S.aureus 734 MRSA = assay: Antibacterial spectrum (MIC), agar dilution; assay type: cell-based; settings: Staphylococcus aureus, read-out: MIC
Experimental: as §1

P.aeruginosa 27853 = assay: Antibacterial spectrum (MIC), agar dilution; assay type: cell-based; settings: Pseudomonas aeruginosa, read-out: MIC
Experimental: as §1

C.freundii 902 = assay: Antibacterial spectrum (MIC), agar dilution; assay type: cell-based; settings: Citrobacter freundii, read-out: MIC
Experimental: as §1

S.aureus 6538 = assay: Antibacterial spectrum (MIC), agar dilution; assay type: cell-based; settings: Staphylococcus aureus, read-out: MIC
Experimental: as §1

S.viridans group 016 = assay: Antibacterial spectrum (MIC), agar dilution; assay type: cell-based; settings: Streptococcus viridans, read-out: MIC
Experimental: as §1

E.cloacae 908R = assay: Antibacterial spectrum (MIC), agar dilution; assay type: cell-based; settings: Enterobacter cloacae, read-out: MIC
Experimental: as §1

N.meningitidis 69480 = assay: Antibacterial spectrum (MIC), agar dilution; assay type: cell-based; settings: Neisseria meningitidis, read-out: MIC
Experimental: as §1

K.pneumoniae 418 = assay: Antibacterial spectrum (MIC), agar dilution; assay type: cell-based; settings: Klebsiella pneumoniae, read-out: MIC
Experimental: as §1

Acinetobacter sp.51-156 = assay: Antibacterial spectrum (MIC), agar dilution; assay type: cell-based; settings: SP.51156, read-out: MIC
Experimental: as §1

S.agalactiae QK44 = assay: Antibacterial spectrum (MIC), agar dilution; assay type: cell-based; settings: Streptococcus agalactiae, read-out: MIC
Experimental: as §1

P.vulgaris 1028 = assay: Antibacterial spectrum (MIC), agar dilution; assay type: cell-based; settings: Proteus vulgaris, read-out: MIC
Experimental: as §1

S.marcescens 69438 = assay: Antibacterial spectrum (MIC), agar dilution; assay type: cell-based; settings: Serratia marcescens, read-out: MIC
Experimental: as §1

X.maltophilia 1AC739 = assay: Antibacterial spectrum (MIC), agar dilution; assay type: cell-based; settings: Stenotrophomonas maltophilia, read-out: MIC
Experimental: as §1

C.freundii 43 = assay: Antibacterial spectrum (MIC), agar dilution; assay type: cell-based; settings: Citrobacter freundii, read-out: MIC
Experimental: as §1

M.catarrhalis RA21 = assay: Antibacterial spectrum (MIC), agar dilution; assay type: cell-based; settings: Moraxella catarrhalis, read-out: MIC
Experimental: as §1

E.faecium = assay: In vitro activity against selected species (MIC50, range); assay type: cell-based; settings: Enterococcus faecium, medium MHA
Experimental: as §1

S.viridans group = assay: In vitro activity against selected species (MIC50, MIC90, range); assay type: cell-based; settings: Streptococcus viridans
S.aureus Smith = assay: Efficacy against systemic infections (septicemia) in mice; assay type: in vivo; settings: Staphylococcus aureus, 96 h, sc 1 and 3 h after challenge, survival day 4
Experimental: (§2) Septicemia was induced in outbred Swiss albino mice (Jbm MoRo [specific pathogen free]; weight 16 to 20 g, Biomedical Research Laboratories, Füllinsdorf, Switzerland). Mice were infected by intraperitoneal injection of diluted overnight cultures of the test organisms. Bacterial challenge doses were 4-10 times the number of organisms required to kill 50% of untreated animals within 48 h. The test compounds were administered p.o. or s.c. 1 and 3 h after the bacterial challenge. To treat the infection with Pseudomonas aeruginosa BA an additional dose was given 5 h after challenge. Control and treatment groups at each dose were composed of five mice each. The 50% effective dose (ED50, in milligrams per kilogram) was calculated by probit analysis as described by Finney (Finney, D.J. 1978, Statistical method in biological assay, 3rd ed. Charles Griffin & Co., Ltd., London), from the survival rates on day 4 after infection.

Escherichia coli 25922 = assay: as above; assay type: in vivo; settings: 96 h, survival day 4
Experimental: as §2

S.pneumoniae PEN-R = assay: In vitro activity against selected species (MIC50, MIC90, range); assay type: cell-based; settings: Streptococcus pneumoniae; for MIC: MIC range
M.catarrhalis = assay: as above; assay type: cell-based; settings: Moraxella catarrhalis, medium IsoB
E.faecalis [2] = assay: as above; assay type: cell-based; settings: Enterococcus faecalis, medium MHA
Experimental: as §1

S.aureus MRSA = assay: as above; assay type: cell-based; settings: Staphylococcus aureus, medium MHA (Mueller Hinton Agar) +NaCl
Experimental: as §1

S.aureus MSSA = assay: as above; assay type: cell-based; settings: Staphylococcus aureus, medium MHB (Mueller Hinton Broth)
[3] = medium IsoB (Isosensitest Broth)

Q: What does the source list for `COc1ccc(N2CC/C(=C\C3=C(C(=O)O)N4C(=O)[C@@H](NC(=O)/C(=N\O)c5csc(N)n5)[C@H]4SC3)C2=O)cc1` [I]?
A: MIC (E.faecalis [1]; MIC range): 0.25 to 1 µg/mL (≈ 0.438 to 1.75 µM); MIC50 (E.faecalis [1]): 0.5 µg/mL (≈ 0.876 µM); MIC90 (E.faecalis [1]): 1 µg/mL (≈ 1.75 µM); MIC (E.coli 25922): 0.12 µg/mL (≈ 0.21 µM); MIC (E.faecalis 6): 0.25 µg/mL (≈ 0.438 µM); MIC (S.pneumoniae Q19): ≤ 0.06 µg/mL; MIC (P.mirabilis 2117): 0.12 µg/mL (≈ 0.21 µM); MIC (S.pyogenes B15): ≤ 0.06 µg/mL; MIC (H.influenzae 1): 0.25 µg/mL (≈ 0.438 µM); MIC (L.monocytogenes BK23): 2 µg/mL (≈ 3.51 µM); MIC (M.morganii 6H-137): ≤ 0.06 µg/mL; MIC (E.cloacae 908SSi): 0.5 µg/mL (≈ 0.876 µM); MIC (S.aureus 734 MRSA): 8 µg/mL (≈ 14 µM); MIC (P.aeruginosa 27853): > 32 µg/mL; MIC (C.freundii 902): 0.25 µg/mL (≈ 0.438 µM); MIC (S.aureus 6538): 0.5 µg/mL (≈ 0.876 µM); MIC (S.viridans group 016): 0.5 µg/mL (≈ 0.876 µM); MIC (E.cloacae 908R): 32 µg/mL (≈ 56.1 µM); MIC (N.meningitidis 69480): ≤ 0.06 µg/mL; MIC (K.pneumoniae 418): 0.12 µg/mL (≈ 0.21 µM); MIC (Acinetobacter sp.51-156): 32 µg/mL (≈ 56.1 µM); MIC (S.agalactiae QK44): 0.25 µg/mL (≈ 0.438 µM); MIC (P.vulgaris 1028): 2 µg/mL (≈ 3.51 µM); MIC (S.marcescens 69438): 1 µg/mL (≈ 1.75 µM); MIC (X.maltophilia 1AC739): > 32 µg/mL; MIC (C.freundii 43): 8 µg/mL (≈ 14 µM); MIC (M.catarrhalis RA21): > 16 µg/mL; MIC (E.faecium; MIC range): 0.1 to 16 µg/mL (≈ 0.175 to 28 µM); MIC50 (E.faecium): 2 µg/mL (≈ 3.51 µM); MIC50 (S.viridans group): 0.5 µg/mL (≈ 0.876 µM); MIC90 (S.viridans group): 2 µg/mL (≈ 3.51 µM); MIC (S.viridans group; MIC range): 0.12 to 4 µg/mL (≈ 0.21 to 7.01 µM); ED50 (S.aureus Smith): < 1 mg/kg; ED50 (Escherichia coli 25922; Escherichia coli 25922, po (orally) 1 and 3 h after challenge): 4.5 mg/kg; ED50 (Escherichia coli 25922; Escherichia coli, E.coli 25922, sc 1 and 3 h after challenge): < 0.3 mg/kg; MIC (S.pneumoniae PEN-R; [3]): 0.12 to 0.25 µg/mL (≈ 0.21 to 0.438 µM); MIC (S.pneumoniae PEN-R; medium IsoB + 20% serum): 0.12 to 0.5 µg/mL; MIC50 (S.pneumoniae PEN-R; [3]): ≤ 0.12 µg/mL; MIC90 (S.pneumoniae PEN-R; [3]): ≤ 0.12 µg/mL; MIC50 (S.pneumoniae PEN-R; medium IsoB + 20% serum): 0.25 µg/mL; MIC (M.catarrhalis; MIC range): 1 to 64 µg/mL (≈ 1.75 to 112 µM); MIC50 (M.catarrhalis): 8 µg/mL (≈ 14 µM); MIC90 (M.catarrhalis): 16 µg/mL (≈ 28 µM); MIC (E.faecalis [2]; MIC range): 0.5 to 1 µg/mL (≈ 0.876 to 1.75 µM); MIC50 (E.faecalis [2]): ≤ 0.5 µg/mL; MIC90 (E.faecalis [2]): 1 µg/mL (≈ 1.75 µM); MIC (S.aureus MRSA; MIC range): 16 to 32 µg/mL (≈ 28 to 56.1 µM); MIC50 (S.aureus MRSA): 16 µg/mL (≈ 28 µM); MIC90 (S.aureus MRSA): 32 µg/mL (≈ 56.1 µM); MIC (S.aureus MSSA; MIC range): 0.5 to 1 µg/mL (≈ 0.876 to 1.75 µM); MIC50 (S.aureus MSSA): 0.5 µg/mL (≈ 0.876 µM); MIC90 (S.aureus MSSA): 0.5 µg/mL (≈ 0.876 µM)
